The text below walks through data of US20260007643A1, “HIGHLY SOLUBLE FORMULATIONS OF HARMINE” (Reconnect Labs AG, priority 2022, published 2026).

The nature of data set [1]: Solubility testing of harmine salts (gravimetric, temperature-dependent). It counts as physicochemical. Particulars: for solubility at 48 h: thermodynamic from solid; for Solubility compared with harmine hydrochloride: in words, data in water. The method, then:
Four 250 mL glass jacketed beakers are set up, which are connected with silicone hoses and connected to a Julabo F25 HE thermostat in order to be able to set a constant temperature. In the beakers there is a Pt100 sensor for temperature monitoring, a stopper with a hole that is sealed with play dough and a vial holder with space for four 4 ml vials for a quadruple determination of the solubility. The beakers are located on a strong magnetic stirrer plate so that the temperature is distributed as homogeneously as possible in the liquid medium. Water is used as the medium. The Pt100 sensors and the Julabo are connected to a measuring computer, which controls the Julabo and the temperatures of the Pt100 sensors can be read.
A Sartorius LE26P microbalance with an accuracy of ±0.01 mg is used for the gravimetric determination of the solubility in mass percent.
4 ml vials are filled with 1-2 mL of the respective solvent and equipped with a stirring magnet. The solid to be measured is then added until it is supersaturated. The prepared vials are sealed and placed in the vial holder and equilibrated in the apparatus for 48 hours at the temperature to be examined. After 24 hours, an equilibrium between the solid and liquid phases should have been reached. The liquid phase is removed and transferred to a second vial via a Whatman 20 μm PTFE pre-syringe filter. The tools used, such as the pre-syringe filter, syringe and cannula, are initially cooled or heated to the temperature to be measured. The second vial is first empty, then weighed with the solution and finally evaporated again to ensure constant mass.
At least when the data in water are considered. […] The solubilities are summarized in the table 14 below and in FIGS. 59 and 60: […]

Data set [2] in a line: Polymorph and salt screening: stability and evaluation of solid state forms. It counts as physicochemical. From the text:
The form scNF1 was also created in the course of cooling crystallizations in water/acetone (70/30), (70/30), water/dioxane water/THF (70/30) and water/acetonitrile (70/30). In addition, the form scNF1 was created by gas diffusion crystallizations of water/1,4-dioxane, water/2-propanol and water/acetonitrile. In long-term slurries, scNF1 was successfully produced with acetone/water (80/20) and acetonitrile/water (90/10). Rapid precipitations of the form scNF1 with the antisolvent water are achieved with the solvents acetone and acetonitrile. Form scNF1 can also be crystallized by evaporating the solvent water.
The form scNF1 is Harmine-HCl dihydrate, as could be determined by means of TGA after static storage (RT/100% RH for 7 days). […] A more detailed characterization of the form scNF1 was not requested by the client.
In the course of the screening performed, 14 new solid-phases were detected by using XRPD.

Data set [3] is described as follows: Blood plasma profiles of harmine and harmol in healthy volunteers. The note with it: ~3.5 mg/kg. The class given is in vivo, Human.
The procedure of data set [4]:
Thus, the present inventors performed an additional screening, in which different compositions of harmine were manufactured and their solubility in water was examined.
To this end, in a first experiment 1 g of harmine freebase was added to […] of dH2O to yield a final concentration of 20% (w/w). Then, the acids mentioned above were individually added to the solution in different molar rations (e.g. 1:1 or 2:1) and it was examined, whether the acids can solubilize harmine freebase by protonation or complex formation.

Data set [5] in a line: pKa and solubility data of harmine and the acids used in the salt screening. The class given is physicochemical.
Data set [6] in a line: Solubility of harmine glucuronate for loading of TIP particles. It counts as physicochemical. The text has this: Loading harmine or its salt into TIP particles: FIG. 12 depicts SEM images of unsuccessful TIP loading with Harmine HCl (A; 1% in EtOH) and successful loadings with Harmine HCl (B; 0.1% in EtOH) and Harmine Glucuronate (C; 25% in H2O). As shown, TIP particles can be loaded with Harmine HCl, but only when using very low substance concentrations (0.1%) in an organic solvent such as EtOH. Loading with higher concentrations (1%) leads to external crystallization. Moreover, using H2O as solvent, triggers the rapid precipitation of HRM HCl as freebase, when it is exposed to basic residues within the TIP particles. […] Regarding the latter point, it could be shown that the loading process of the TIP particles is most efficient, when adding highly concentrated drug substance solutions (either in EtOH, H2O or DMSO) to the particles. Loading TIP particles with harmine glucuronate yielded exceptional results. […] It is thought that this property of HRM GLU is caused by its highly amorphous structure, leading to less crystallization compared to HRM HCl (which crystallizes readily as freebase, especially when exposed to basic residues within the TIP particles).
Thus, harmine glucuronate is very practical to handle on a large scale (e.g. up to 1 Kg of HRM GLU can be dissolved in 1 L of water), yields very efficient loading of the TIP particles.

The nature of data set [7]: Dose-response study of DMT and harmine in healthy subjects: harmine PK profiles. The note with it: 180 mg harmine with 90 mg DMT formulated in TIP, ODTs sublingual in 3 dosing intervals every 20 minutes, two subjects.
Data set [8] in a line: Solubility of harmine in the solvents used in the salt screening. The class given is physicochemical. Particulars: for solubility: organic solvent or mixture. On the procedure:
The drug substance Harmine was investigated for a salt screening of different salts by crystallization experiments from various solvents and grinding experiments. Solubility experiments were also conducted before starting the salt screening.
In the following table 3, the different solvents used in the salt screening are summarized.

The target in data set [9] is T1, monoamine oxidase A (MAO-A) (Homo sapiens, UniProt P21397).
T1 sequence (P21397 1-527): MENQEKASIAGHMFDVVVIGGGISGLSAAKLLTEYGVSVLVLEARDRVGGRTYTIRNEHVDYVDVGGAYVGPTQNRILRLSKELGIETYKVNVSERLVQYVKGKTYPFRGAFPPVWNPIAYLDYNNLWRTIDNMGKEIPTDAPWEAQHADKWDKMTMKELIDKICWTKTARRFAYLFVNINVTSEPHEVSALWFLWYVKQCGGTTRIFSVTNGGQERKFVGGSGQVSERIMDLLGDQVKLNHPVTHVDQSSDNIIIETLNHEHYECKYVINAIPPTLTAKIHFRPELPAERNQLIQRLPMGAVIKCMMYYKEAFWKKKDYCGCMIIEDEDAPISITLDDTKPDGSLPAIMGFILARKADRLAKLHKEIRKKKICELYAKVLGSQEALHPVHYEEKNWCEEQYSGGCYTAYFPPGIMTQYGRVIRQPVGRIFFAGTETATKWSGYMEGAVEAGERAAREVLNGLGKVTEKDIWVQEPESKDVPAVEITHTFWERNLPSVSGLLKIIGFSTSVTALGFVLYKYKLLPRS
Particulars: cited from earlier work.

The target in data set [10] is T2, monoamine oxidase B (MAO-B) (Homo sapiens, UniProt P27338).
T2 sequence (P27338 1-520): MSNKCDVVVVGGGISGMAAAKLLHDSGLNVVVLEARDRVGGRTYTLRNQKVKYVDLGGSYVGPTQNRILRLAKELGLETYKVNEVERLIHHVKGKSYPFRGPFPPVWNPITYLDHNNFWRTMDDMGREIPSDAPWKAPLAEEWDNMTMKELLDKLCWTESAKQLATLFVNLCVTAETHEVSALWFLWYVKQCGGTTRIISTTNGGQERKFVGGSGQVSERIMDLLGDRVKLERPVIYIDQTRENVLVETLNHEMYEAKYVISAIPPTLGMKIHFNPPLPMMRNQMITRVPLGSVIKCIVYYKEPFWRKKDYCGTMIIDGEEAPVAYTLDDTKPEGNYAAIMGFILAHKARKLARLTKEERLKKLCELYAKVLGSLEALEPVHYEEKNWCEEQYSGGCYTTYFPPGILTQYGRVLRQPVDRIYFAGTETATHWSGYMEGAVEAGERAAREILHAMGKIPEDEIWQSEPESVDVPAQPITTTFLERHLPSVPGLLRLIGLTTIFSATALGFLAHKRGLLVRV
The note with it: cited from earlier work.

For data set [11] the following is noted: first pKa value; cited from earlier work.
[12] abbreviates: ethanol, organic solvent or mixture, EtOH, 25° C., read-out: Solubility at 25° C. (EtOH).
Setting [13] is: ethanol, organic solvent or mixture, EtOH, 37° C., read-out: Solubility at 37° C. (EtOH).
Where [14] appears, read: water, H2O, 25° C., read-out: Solubility at 25° C. (H2O).
Setting [15] is: water, H2O, 37° C., read-out: Solubility at 37° C. (H20).

Like-named read-outs stand apart in the source and are kept apart here.

As a reminder, the solubility is the dissolved amount per volume that the medium holds. One may read the Cmax as the peak of the concentration-time curve. As usually defined, the Solubility is the concentration that dissolves in the medium under given conditions.

Take `COc1ccc2c(c1)[nH]c1c(C)nccc12.Cl` [Harmine HCl, reference compound]: the solubility at 48 h in data set [1] (setting [12]) amounted to 6.79 mg/mL; in data set [1] (setting [13]), 7.95 mg/mL; in data set [1] (setting [14]), 24.9 mg/mL; in [1] (setting [15]) it was 53.1 mg/mL. Further, the “Solid form change on static storage” value in data set [2] (RT/100% RH for 7 days) is recorded as “converts to the form scNF1”. The molecule further displayed a maximum concentration (Cmax) in data set [3] (human, plasma, oral administration) of approximately 80 ng/mL. For the same molecule, the Harmine plasma level in [3] (oral capsule, 10 healthy volunteers) was approximately 80 ng/mL.

As for `O=C(O)[C@@H](O)[C@H](O)[C@H](O)[C@@H](O)C(=O)O` [mucic acid], the “Ability of the acid to solubilize harmine freebase” value in data set [4] is “not able to solubilize harmine”.

Consider `O=C(O)[C@H](O)[C@@H](O)[C@H](O)[C@H](O)CO` [D-gluconic acid], for which, in data set [4], the “Solubility of harmine with the acid” value was “higher than 15%”.

With D-glucuronic acid, in [4] (1 g harmine freebase in 5 g dH2O (20% w/w), acid added in molar ratios e.g. 1:1 or 2:1), the “Ability of the acid to solubilize harmine freebase” value was “highest solubility”.

In the case of Harmine Glucuronate, in data set [1] (25° C.), the “Gravimetric solubility relative to harmin hydrochloride” value is “about eight times”. The “Solubility at 25° C. (EtOH)” value in data set [1] (EtOH, 25° C.) was 4.25 mg/mL. For the same molecule, the “Solubility at 37° C. (EtOH)” value in data set [1] (EtOH, 37° C.) is listed as 7.93 mg/mL. Moreover, the “Solubility at 25° C. (H2O)” value in data set [1] (H2O, 25° C.) was found to be 405.95 mg/mL. The “Solubility at 37° C. (H20)” value in data set [1] (H2O, 37° C.) was 549.52 mg/mL. For the same molecule, the “Solubility compared with harmine hydrochloride” value in data set [1] was “extremely improved solubility”. For the same molecule, the “ΔpKs value of harmine and glucuronic acid” value in [5] is on record as 4.27. In data set [4] (harmine + equimolar glucuronic acid in deionized water, 1 g harmine in 5 mL final volume), the “Harmine concentration readily feasible in water” value is recorded as more than 20%. The “Solubility in H2O” value in data set [6] (H2O, RT) is reported as approximately 45%. Moreover, the “Amount that can be dissolved in 1 L of water” value in data set [6] (in 1 L of water) is given as “up to 1 Kg”. In data set [7], the “Bioavailability of harmine (plasma PK profiles)” value is listed as “bioavailable”.

Turning to `COc1ccc2c(c1)[nH]c1c(C)nccc12.Cl.O.O` [Harmine-HCl dihydrate], the “Solid form stability at ambient conditions” value in data set [2] (after 5 weeks at ambient conditions, powder diffractogram) is “traces of Harmine-HCl were identified”.

With `COc1ccc2c(c1)[nH]c1c(C)nccc12` [Harmine, 7-methoxy-1-methyl-9H-pyrido[3,4-b]-indole], the solubility in [8] (2-picoline) turned out to be 10 mg/mL; in data set [8] (dimethyl sulfoxide (DMSO)), 13 mg/mL; in data set [8] (dimethylformamide (DMF), dimethylformamid (DMF), souble), 33 mg/mL; in data set [8] (methanol, 45 °C) it was 12 mg/mL; in data set [8] (1-methyl-2-pyrrolidone (NMP), souble) it was 80 mg/mL; in data set [8] (dimethylacetamide, souble) it was 40 mg/mL. In addition, the solubility in data set [8] (tetramethylurea, souble) is 40 mg/mL; in data set [8] (pyridine), 205 mg/mL. Besides, in data set [8] (95% methanol | 5% water), the Solubility in solvent entry is on record as “almost resolved”. The Anti-Solvent practically insoluble in [8] (dimethyl carbonate, THF, acetonitrile, methanol, acetone, MEK, dichloromethane (25° C. | 45° C.), chloroform, 1,4-dioxane, water, veratrol, p-xylene, sulfolane, benzonitrile, 95% acetonitrile | 5% water (45° C.), 95% acetone | 5% water (45° C.)) is “practically insoluble”. Also, the “Inhibition of MAO-A” value in [9] is given as “reversibly inhibits”. Besides, the “Inhibition of MAO-B” value in [10] was “does not inhibit”. The “pka (½)” value in [11] is given as 7.45.

Regarding `COc1ccc2c(c1)[nH]c1c(C)nccc12.O=P(O)(O)O` [Harmine Phosphate], the solubility at 48 h turned out to be 0.58 mg/mL in data set [1] (setting [12]), 0.55 mg/mL in data set [1] (setting [13]), 11 mg/mL in data set [1] (setting [14]) and 12.9 mg/mL in data set [1] (setting [15]). The “Solubility compared with harmine hydrochloride” value in data set [1] (listed as Harmine-Phosphate, Phosphate) is given as “do not show any better solubility properties”; in data set [1] (listed as harmine phosphate, Phosphate), “significantly worse”. The “Evaluation/Remarks: solubility in deuterated solvents” value in data set [2] (any deuterated solvent) was “Since the new form does not show sufficient solubility”.

On to L(−)-Malic acid, for which the results for the ΔpKa in data set [5] (harmine pKa 7.45 versus first pKa of the acid) and in [5] (harmine pKa 7.45 versus second pKa of the acid) were 3.99 and 2.35, respectively.
